In US9288990B2, “Synergistic weed control from applications of penoxsulam and pethoxamid” (Dow AgroSciences, LLC, priority 2013, dated 2016):

Columns and labels:
Format in all cases: in vivo
[1] = test system: Ambrosia artemisiifolia L. (common ragweed, AMBEL); experiment: Pre-emergence field trial, weed control of AMBEL
Procedure: (§1) Field trials were conducted with applications made in the area of naturally occurring weed populations in Germany, France, Hungary and Italy. The soil was treated prior to the emergence of target plants. All treatments were applied using a randomized complete block trial design, plots 3 meters (m) wide by 8-10 m long, with 3 replications per treatment.
(§2) Treatments consisted of penoxsulam and pethoxamid, applied alone and in combination. Spray solutions were prepared using an appropriate amount of dilution to treat the area of the plots based on use rates and water volumes necessary based on a per hectacre basis. Spray solutions were prepared and applied with the specified active ingredients in single and two-way combinations to be able to perform Colby synergy calculations. Formulated products were applied to the soil with a backpack or bicycle compressed air sprayer equipped with flat fas nozzles calibrated to deliver from 200 to 300 L/ha at a normal spray height above the solid, at spray pressures ranging from 210 to 350 kilopascals (kPa).
(§3) The treated plots and control plots were rated blind at various intervals after application. Ratings were based on a scale of 0-100%, as discussed above, wherein 0% indicates no control of the undesired vegetation and 100% indicates complete control of the undesired vegetation.
(§4) Colby's equation was used to determine the herbicidal effects expected from the mixtures, as described above. The results were measured at the evaluation intervals provided in Table 1 after the first application of the compositions. […] The herbicide tank mix combinations tested, application rates and ratios employed, plant species tested, and results are given below.

[2] = test system: Kickxia elantine (canker root, KICEL); experiment: Pre-emergence field trial, weed control of KICEL
Procedure: as §1, §2
(§5) The treated plots and control plots were rated blind at various intervals after application. […]
(§6) Colby's equation was used to determine the herbicidal effects expected from the mixtures, as described above. The results were measured at the evaluation intervals provided in Table 1 after the first application of the compositions. […]

[3] = test system: Chenopodium album L. (common lambsquarters, CHEAL); experiment: Pre-emergence field trial, weed control of CHEAL
Procedure: as §1, §2, §3, §4

[4] = test system: Echinochloa crus-galli (L.) P. Beauv. (barnyardgrass, ECHCG); experiment: Pre-emergence field trial, weed control of ECHCG
Procedure: as §1, §2, §3, §4

[5] = test system: Polygonum persicaria L. (ladysthumb, POLPE); experiment: Pre-emergence field trial, weed control of POLPE; settings: 54 days
Procedure: as §1, §2, §5, §6

[6] = test system: Mercurialis annua (annual mercury, MERAN); experiment: Pre-emergence field trial, weed control of MERAN; settings: 29 days
Procedure: as §1, §2, §5, §6

[7] = test system: Xanthium strumarium L. (common cocklebur, XANST); experiment: Pre-emergence field trial, weed control of XANST
Procedure: as §1, §2, §3, §4

[8] = 14 days, penoxsulam 5 g ai/ha alone
[9] = 28 days, penoxsulam 5 g ai/ha alone
[10] = 28 days, penoxsulam 10 g ai/ha alone
[11] = 58 days, penoxsulam 5 g ai/ha alone
[12] = 58 days, penoxsulam 10 g ai/ha alone
[13] = 14 days, pethoxamid 1200 g ai/ha alone
[14] = 28 days, pethoxamid 1200 g ai/ha alone
[15] = 58 days, pethoxamid 1200 g ai/ha alone

Structure (SMILES): COc1cnc(OC)n2nc(NS(=O)(=O)c3c(OCC(F)F)cccc3C(F)(F)F)nc12 [Penoxsulam]
- Mean % weed control [1, 8]: 50%
- Mean % weed control ([1]; 14 days, penoxsulam 10 g ai/ha alone): 78.33%
- Mean % weed control [1, 9]: 33.33%
- Mean % weed control [1, 10]: 66.67%
- Mean % weed control [1, 11]: 33.33%
- Mean % weed control [1, 12]: 66.67%
- Mean % weed control ([2]; 696 h): 20%
- Mean % weed control [3, 8]: 26.67%
- Mean % weed control [3, 9]: 13.33%
- Mean % weed control ([3]; 29 days, penoxsulam 5 g ai/ha alone): 95%
- Mean % weed control ([3]; 46 days, penoxsulam 5 g ai/ha alone): 43.33%
- Mean % weed control [4, 10]: 76.67%
- Mean % weed control [4, 11]: 20%
- Mean % weed control [4, 12]: 63.33%
- Mean % weed control ([5]; penoxsulam 5 g ai/ha alone): 90%
- Mean % weed control ([6]; penoxsulam 10 g ai/ha alone): 36.67%
- Mean % weed control [7, 9]: 20%
- Mean % weed control [7, 11]: 10%

Structure (SMILES): CCOCCN(C(=O)CCl)C(=C(C)C)c1ccccc1 [Pethoxamid, 2-chloro-N-(ethoxyethyl)-N-(2-methyl-1-phenylprop-1-enyl)acetamide]
- Mean % weed control [1, 13]: 33.33%
- Mean % weed control [1, 14]: 13.33%
- Mean % weed control [1, 15]: 13.33%
- Mean % weed control ([2]; KICEL, 29 days, pethoxamid 1200 g ai/ha alone): 0%
- Mean % weed control [3, 13]: 26.67%
- Mean % weed control [3, 14]: 6.67%
- Mean % weed control ([3]; 29 days, pethoxamid 1200 g ai/ha alone): 0%
- Mean % weed control ([3]; 46 days, pethoxamid 1200 g ai/ha alone): 16.67%
- Mean % weed control [4, 14]: 33.33%
- Mean % weed control [4, 15]: 16.67%
- Mean % weed control ([5]; pethoxamid 1200 g ai/ha alone): 72.33%
- Mean % weed control ([6]; pethoxamid 1200 g ai/ha alone): 0%
- Mean % weed control [7, 14]: 3.33%
- Mean % weed control [7, 15]: 0%
